Measured values: patent US20260001871A1, “TRIAZOLE DERIVATIVES AS MODULATORS OF MAS-RELATED G-PROTEIN RECEPTOR D” (ESCIENT PHARMACEUTICALS, INC., priority 2022, published 2026)

Target: human MRGPRD (Homo sapiens, UniProt Q8TDS7)
Experiment: MRGPRD antagonist activity, IP-One HTRF assay in CHO cells stably expressing human MRGPRD (versus 100 μM β-Alanine agonist)
Format: cell-based
How it was run: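 CHO cells stably expressing human MRGPRD, plated overnight at 37 °C, were treated with antagonist plus agonist in Tris-HCl/NaCl/LiCl buffer pH 8, incubated 1 h at 37 °C then 1 h at room temperature. IP-1 accumulation read by HTRF; IC50 and percent antagonism of maximum efficacy averaged, SEM reported.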

Sequence of human MRGPRD (Q8TDS7 whole entry): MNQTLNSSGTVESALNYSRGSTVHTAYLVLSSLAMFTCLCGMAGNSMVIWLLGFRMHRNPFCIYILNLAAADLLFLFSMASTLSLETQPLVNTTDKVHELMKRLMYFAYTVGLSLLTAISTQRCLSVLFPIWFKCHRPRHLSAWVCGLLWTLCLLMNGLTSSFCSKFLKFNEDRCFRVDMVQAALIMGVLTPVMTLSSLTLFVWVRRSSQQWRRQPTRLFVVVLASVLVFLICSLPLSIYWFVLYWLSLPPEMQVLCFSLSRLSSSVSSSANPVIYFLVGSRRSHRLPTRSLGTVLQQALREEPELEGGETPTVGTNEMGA

IC50	Compound
1000 to 3000 nM	Cc1cc(NC(=O)c2nnn(C3CCC(c4c(C)nn(C)c4C)CC3)c2C2CC2)ccn1 (centres unmarked) [Compound 13-1, 5-cyclopropyl-N-(2-methylpyridin-4-yl)-1-(4-(1,3,5-trimethyl-1H-pyrazol-4-yl)cyclohexyl)-1H-1,2,3-triazole-4-carboxamide]
> 3000 nM	COc1ccccc1CCNC(=O)c1nnn(-c2ccc(-c3ccccc3)cc2)c1C1CC1 [Compound 14-1]
> 3000 nM	CC(C)(C)n1cc(NC(=O)c2nnn(-c3ccc(-c4ccccc4)cc3)c2C2CC2)cn1 [Compound 14-2]
> 3000 nM	CC(NC(=O)c1nnn(-c2ccc(-c3ccccc3)cc2)c1C1CC1)c1nccs1 (centres unmarked) [Compound 14-3]
> 3000 nM	Cc1nn(C(=O)c2nnn(-c3ccc(-c4ccccc4)cc3)c2C2CC2)c2cccc(N)c12 [Compound 14-4]
> 3000 nM	Cc1[nH]ncc1CNC(=O)c1nnn(-c2ccc(-c3ccccc3)cc2)c1C1CC1 [Compound 14-5]
> 3000 nM	O=C(NC1(c2ccccc2)CCC1)c1nnn(-c2ccc(-c3ccccc3)cc2)c1C1CC1 [Compound 14-6]
> 3000 nM	O=C(NCC1CCCO1)c1nnn(-c2ccc(-c3ccccc3)cc2)c1C1CC1 (centres unmarked) [Compound 14-7]
> 3000 nM	CC(NC(=O)c1nnn(-c2ccc(-c3ccccc3)cc2)c1C1CC1)c1cncnc1 (centres unmarked) [Compound 14-8]
> 3000 nM	O=C(NCCc1ncn[nH]1)c1nnn(-c2ccc(-c3ccccc3)cc2)c1C1CC1 [Compound 14-9]
> 3000 nM	Cn1ncc(NC(=O)c2nnn(-c3ccc(-c4ccccc4)cc3)c2C2CC2)c1Cl [Compound 14-10]
> 3000 nM	O=C(NCc1cscn1)c1nnn(-c2ccc(-c3ccccc3)cc2)c1C1CC1 [Compound 14-11]
> 3000 nM	CCn1nc(C)cc1NC(=O)c1nnn(-c2ccc(-c3ccccc3)cc2)c1C1CC1 [Compound 14-12]
> 3000 nM	Cc1nc(C(C)NC(=O)c2nnn(-c3ccc(-c4ccccc4)cc3)c2C2CC2)cs1 (centres unmarked) [Compound 14-13]
> 3000 nM	Cc1nn(C)c2ncnc(NC(=O)c3nnn(-c4ccc(-c5ccccc5)cc4)c3C3CC3)c12 [Compound 14-14]
100 to 500 nM	CCc1cc(NC(=O)c2nnn(-c3ccc(-c4ccccc4)cc3)c2C2CC2)ccn1 [Compound 14-15, 1-([1,1′-biphenyl]-4-yl)-5-cyclopropyl-N-(2-ethylpyridin-4-yl)-1H-1,2,3-triazole-4-carboxamide]
100 to 500 nM	CC(C)c1cc(NC(=O)c2nnn(-c3ccc(-c4ccccc4)cc3)c2C2CC2)ccn1 [Compound 14-16, 1-([1,1′-biphenyl]-4-yl)-5-cyclopropyl-N-(2-isopropylpyridin-4-yl)-1H-1,2,3-triazole-4-carboxamide]
100 to 500 nM	Cn1ncc2c1CN(C(=O)c1nnn(-c3ccc(-c4ccccc4)cc3)c1C1CC1)C2 [Compound 14-17]
100 to 500 nM	C#Cc1cc(NC(=O)c2nnn(-c3ccc(-c4ccccc4)cc3)c2C2CC2)ccn1 [Compound 14-18]
500 to 1000 nM	CS(=O)(=O)Nc1ccc(NC(=O)c2nnn(-c3ccc(-c4ccccc4)cc3)c2C2CC2)cc1 [Compound 14-19]
500 to 1000 nM	Cc1ccc(CNC(=O)c2nnn(-c3ccc(-c4ccccc4)cc3)c2C2CC2)cn1 [Compound 14-20]
500 to 1000 nM	Cc1csc(CNC(=O)c2nnn(-c3ccc(-c4ccccc4)cc3)c2C2CC2)n1 [Compound 14-21]

The remaining lines, values behind:

Compound	IC50
N#Cc1ccc(-c2ccc(-n3nnc(C(=O)Nc4ccnc(F)c4)c3C3CC3)cc2)cc1F [Compound 9-36]	100 to 500 nM
N#Cc1ccc(-c2ccc(-n3nnc(C(=O)Nc4cc(F)nc(F)c4)c3C3CC3)cc2)cc1F [Compound 9-37]	500 to 1000 nM
Cc1cc(NC(=O)c2nnn(-c3ccc(-c4c(C)nn(-c5ccccc5)c4C)cc3)c2C2CC2)ccn1 [Compound 10-1, 5-cyclopropyl-1-(4-(3,5-dimethyl-1-phenyl-1H-pyrazol-4-yl)phenyl)-N-(2-methylpyridin-4-yl)-1H-1,2,3-triazole-4-carboxamide]	< 100 nM
Cc1nn2cccnc2c1-c1ccc(-n2nnc(C(=O)NC3(c4cncc(Cl)c4)CC3)c2C2CC2)cc1 [Compound 10-2]	> 3000 nM
Cc1cc(NC(=O)c2nnn(-c3ccc(-c4c(C)nn5cccnc45)cc3)c2C2CC2)ccn1 [Compound 10-3]	< 100 nM
CCc1cc(NC(=O)c2nnn(-c3ccc(-c4c(C)nn5cccnc45)cc3)c2C2CC2)ccn1 [Compound 10-4]	100 to 500 nM
Cc1ccc(CNC(=O)c2nnn(-c3ccc(-c4c(C)nn5cccnc45)cc3)c2C2CC2)cn1 [Compound 10-5]	100 to 500 nM
CCn1cc(CNC(=O)c2nnn(-c3ccc(-c4c(C)nn5cccnc45)cc3)c2C2CC2)cn1 [Compound 10-6]	100 to 500 nM
Cc1nn2cccnc2c1-c1ccc(-n2nnc(C(=O)Nc3ccc(NS(C)(=O)=O)cc3)c2C2CC2)cc1 [Compound 10-7]	1000 to 3000 nM
CCc1ccc(C2(NC(=O)c3nnn(-c4ccc(-c5c(C)nn6cccnc56)cc4)c3C3CC3)CC2)cn1 [Compound 10-8]	1000 to 3000 nM
CCn1cc(CNC(=O)c2nnn(-c3ccc(-c4c(C)nn(-c5ccccc5)c4C)cc3)c2C2CC2)cn1 [Compound 10-9]	< 100 nM
Cc1cc(NC(=O)c2nnn(-c3ccc(-c4c(C)nn(C)c4C)cc3)c2C(C)C)ccn1 [Compound 10-10]	< 100 nM
CCn1cc(CNC(=O)c2nnn(-c3ccc(-c4c(C)nn5ccccc45)cc3)c2C(C)C)cn1 [Compound 10-11]	< 100 nM
Cc1cc(NC(=O)c2nnn(-c3ccc(-c4c(C)nn5ccccc45)cc3)c2C(C)C)ccn1 [Compound 10-12]	100 to 500 nM
Cc1nn(C)c(C)c1-c1ccc(-n2nnc(C(=O)Nc3ccncc3)c2C2CC2)nc1 [Compound 11-1, 5-cyclopropyl-N-(pyridin-4-yl)-1-(5-(1,3,5-trimethyl-1H-pyrazol-4-yl)pyridin-2-yl)-1H-1,2,3-triazole-4-carboxamide]	100 to 500 nM
Cc1cc(NC(=O)c2nnn(-c3ccc(-c4ccc(C#N)cc4)cn3)c2C2CC2)ccn1 [Compound 11-2]	100 to 500 nM
Cc1cc(NC(=O)c2nnn(C3CC=C(c4c(C)nn(C)c4C)CC3)c2C2CC2)ccn1 (centres unmarked) [Compound 12-1, 5-cyclopropyl-N-(2-methylpyridin-4-yl)-1-(4-(1,3,5-trimethyl-1H-pyrazol-4-yl)cyclohex-3-en-1-yl)-1H-1,2,3-triazole-4-carboxamide]	100 to 500 nM
Cc1n[nH]c2ncnc(NC(=O)c3nnn(C4CC=C(c5ccc(C#N)cc5)CC4)c3C3CC3)c12 (centres unmarked) [Compound 12-2]	100 to 500 nM
Cc1cc(NC(=O)c2nnn(C3CC=C(c4c(C)nn(-c5ccccc5)c4C)CC3)c2C2CC2)ccn1 (centres unmarked) [Compound 12-3]	500 to 1000 nM
Cc1cc(NC(=O)c2nnn(C3CC=C(c4ccc(F)cc4)CC3)c2C2CC2)ccn1 (centres unmarked) [Compound 12-4]	500 to 1000 nM
Cc1cc(NC(=O)c2nnn(C3CC=C(c4c(C)nn5ccccc45)CC3)c2C2CC2)ccn1 (centres unmarked) [Compound 12-5]	500 to 1000 nM
Cn1cc(C2(NC(=O)c3nnn(C4CC=C(c5ccc(C#N)cc5)CC4)c3C3CC3)CC2)cn1 (centres unmarked) [Compound 12-6]	1000 to 3000 nM
Cc1cc(NC(=O)c2nnn(C3CC=C(c4ccc(CC#N)cc4)CC3)c2C2CC2)ccn1 (centres unmarked) [Compound 12-7]	1000 to 3000 nM
CCn1cc(CNC(=O)c2nnn(C3CC=C(c4ccc(C#N)cc4)CC3)c2C2CC2)cn1 (centres unmarked) [Compound 12-8]	1000 to 3000 nM
N#Cc1ccc(C2=CCC(n3nnc(C(=O)NC4(c5cccnc5)CC4)c3C3CC3)CC2)cc1 (centres unmarked) [Compound 12-9]	1000 to 3000 nM
